Results published in ChEMBL document CHEMBL2034891, “Discovery, design and synthesis of Y-shaped peroxisome proliferator-activated receptor δ agonists as potent anti-obesity agents in vivo” (Eur J Med Chem, 2012).
Blank lines part the entries; values can stand above or below the compound they belong to. Activity calls are given as the source filed them. The rule behind the calls is not given here.

Experiments:
Homo sapiens = organism: Homo sapiens; assay: Selectivity ratio of EC50 for human PPARalpha to EC50 for human PPARdelta
[1] = biological target: T1, Peroxisome proliferator-activated receptor alpha (Homo sapiens, UniProt Q07869); assay: Transactivation activity at human PPARalpha expressed in african green monkey CV1 cells after 24 hrs by luciferase reporter gene assay; format: cell-based, CV-1
T1 sequence (Q07869 whole entry): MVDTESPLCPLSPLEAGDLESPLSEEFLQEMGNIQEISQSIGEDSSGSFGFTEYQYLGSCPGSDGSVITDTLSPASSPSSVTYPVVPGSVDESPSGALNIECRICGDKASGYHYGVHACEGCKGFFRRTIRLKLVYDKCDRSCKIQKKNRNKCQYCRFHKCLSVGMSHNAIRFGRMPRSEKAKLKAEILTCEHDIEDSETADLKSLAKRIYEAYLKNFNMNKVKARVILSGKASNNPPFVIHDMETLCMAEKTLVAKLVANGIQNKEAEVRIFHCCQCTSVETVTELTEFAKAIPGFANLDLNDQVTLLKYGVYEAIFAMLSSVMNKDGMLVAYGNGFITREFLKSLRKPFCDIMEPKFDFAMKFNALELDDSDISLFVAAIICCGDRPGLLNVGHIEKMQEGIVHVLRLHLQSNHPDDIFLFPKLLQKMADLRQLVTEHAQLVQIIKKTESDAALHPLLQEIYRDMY

[2] = biological target: T2, Peroxisome proliferator-activated receptor gamma (Homo sapiens, UniProt P37231); assay: Transactivation activity at human PPARgamma expressed in african green monkey CV1 cells after 24 hrs by luciferase reporter gene assay; format: cell-based, CV-1
T2 sequence (P37231 whole entry): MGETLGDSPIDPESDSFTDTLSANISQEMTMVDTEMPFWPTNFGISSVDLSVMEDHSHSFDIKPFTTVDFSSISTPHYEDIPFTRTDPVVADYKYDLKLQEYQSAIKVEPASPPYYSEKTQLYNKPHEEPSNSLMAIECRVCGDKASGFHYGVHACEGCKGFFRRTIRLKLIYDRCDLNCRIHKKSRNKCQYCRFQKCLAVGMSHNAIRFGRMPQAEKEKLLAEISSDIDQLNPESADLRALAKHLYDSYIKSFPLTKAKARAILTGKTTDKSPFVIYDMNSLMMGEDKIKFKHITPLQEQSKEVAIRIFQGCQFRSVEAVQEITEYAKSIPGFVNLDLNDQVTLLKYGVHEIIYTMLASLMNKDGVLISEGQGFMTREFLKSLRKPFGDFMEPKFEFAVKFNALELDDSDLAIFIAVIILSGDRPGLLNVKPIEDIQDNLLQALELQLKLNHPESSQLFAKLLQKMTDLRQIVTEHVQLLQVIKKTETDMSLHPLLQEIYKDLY

[3] = biological target: T3, Peroxisome proliferator-activated receptor delta (Homo sapiens, UniProt Q03181); assay: Transactivation activity at human PPARdelta expressed in african green monkey CV1 cells after 24 hrs by luciferase reporter gene assay; format: cell-based, CV-1
T3 sequence (Q03181 whole entry): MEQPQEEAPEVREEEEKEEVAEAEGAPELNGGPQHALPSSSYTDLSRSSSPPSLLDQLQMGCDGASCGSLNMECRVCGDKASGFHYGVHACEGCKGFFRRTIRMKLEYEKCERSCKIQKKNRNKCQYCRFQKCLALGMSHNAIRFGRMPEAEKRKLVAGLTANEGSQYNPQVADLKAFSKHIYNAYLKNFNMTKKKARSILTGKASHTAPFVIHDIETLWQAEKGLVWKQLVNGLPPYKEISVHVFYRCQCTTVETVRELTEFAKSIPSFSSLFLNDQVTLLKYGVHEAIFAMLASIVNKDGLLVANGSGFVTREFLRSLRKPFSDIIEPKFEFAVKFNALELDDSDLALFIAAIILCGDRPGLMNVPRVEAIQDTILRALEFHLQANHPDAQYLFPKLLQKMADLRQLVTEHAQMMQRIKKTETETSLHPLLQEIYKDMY

[4] = Oral bioavailability in ICR mouse at 10 mg/kg; format: ADME, organism-based; conditions: in vivo
[5] = Tmax in ICR mouse at 10 mg/kg, po; format: ADME, organism-based; set-up: dose 10 mg/kg, route oral; conditions: in vivo
[6] = biological target: T3, Peroxisome proliferator-activated receptor delta; assay: Binding affinity at human GST-tagged PPARdelta ligand binding domain after 1 hr by time-resolved FRET analysis
Mus musculus [7] = assay: Antiobesity activity in high-fat diet fed C57BL/6 mouse assessed as increase in body weight at 10 mg/kg, po QD measured after 78 days (reference value: 102%); format: functional
[8] = Clearance in ICR mouse at 10 mg/kg, po; format: ADME, organism-based; set-up: dose 10 mg/kg, route oral; conditions: in vivo
Mus musculus [9] = assay: Antiobesity activity in high-fat diet fed C57BL/6 mouse assessed as decrease in serum triglyceride level at 10 mg/kg, po QD relative to vehicle-treated control; format: functional; set-up: scale not given: the % may be the effect or the level left
Mus musculus [10] = assay: Antiobesity activity in high-fat diet fed C57BL/6 mouse assessed as decrease in lipid accumulation on brown adipose tissue at 10 mg/kg, po QD hematoxylin and eosin staining-based histological analysis; format: functional, organism-based; set-up: dose 10 mg/kg
Mus musculus [11] = assay: AUMC in ICR mouse at 10 mg/kg, po; format: ADME, organism-based; set-up: dose 10 mg/kg, route oral; conditions: in vivo
Mus musculus [12] = assay: Dose normalized AUC in ICR mouse at 1 mg/kg, iv; format: ADME, organism-based; set-up: dose 1 mg/kg, route intravenous; conditions: in vivo
Mus musculus [13] = assay: Antiobesity activity in high-fat diet fed C57BL/6 mouse assessed as decrease in lipid accumulation on white adipose tissue at 10 mg/kg, po QD hematoxylin and eosin staining-based histological analysis; format: functional, organism-based; set-up: dose 10 mg/kg
[14] = AUC in ICR mouse at 10 mg/kg, po; format: ADME, organism-based; set-up: dose 10 mg/kg, route oral; conditions: plasma
[15] = Tmax in ICR mouse at 1 mg/kg, iv; format: ADME, organism-based; set-up: dose 1 mg/kg, route intravenous; conditions: in vivo
Mus musculus [16] = assay: Dose normalized AUC in ICR mouse at 10 mg/kg, po; format: ADME, organism-based; set-up: dose 10 mg/kg, route oral; conditions: in vivo
[17] = Mean residence time in ICR mouse at 1 mg/kg, iv; format: ADME, organism-based; set-up: dose 1 mg/kg, route intravenous; conditions: in vivo
[18] = AUC in ICR mouse at 1 mg/kg, iv; format: ADME, organism-based; set-up: dose 1 mg/kg, route intravenous; conditions: plasma
[19] = Terminal half life in ICR mouse at 1 mg/kg, iv; format: ADME, organism-based; set-up: dose 1 mg/kg, route intravenous; conditions: in vivo, read-out: beta t1/2 (converted)
[20] = Volume of distribution at steady state in ICR mouse at 1 mg/kg, iv; format: ADME, organism-based; set-up: dose 1 mg/kg, route intravenous; conditions: in vivo, read-out: Vdss
Mus musculus [21] = assay: Antiobesity activity in high-fat diet fed C57BL/6 mouse assessed as absence of fatty liver at 10 mg/kg, po QD hematoxylin and eosin staining-based histological analysis; format: functional, organism-based; set-up: dose 10 mg/kg
[22] = Mean residence time in ICR mouse at 10 mg/kg, po; format: ADME, organism-based; set-up: dose 10 mg/kg, route oral; conditions: in vivo
[23] = Cmax in ICR mouse at 10 mg/kg, po; format: ADME, organism-based; set-up: dose 10 mg/kg, route oral; conditions: in vivo
[24] = Clearance in ICR mouse at 1 mg/kg, iv; format: ADME, organism-based; set-up: dose 1 mg/kg, route intravenous; conditions: in vivo
[25] = Cmax in ICR mouse at 1 mg/kg, iv; format: ADME, organism-based; set-up: dose 1 mg/kg, route intravenous; conditions: in vivo
Mus musculus [26] = assay: Volume of distribution at steady state in ICR mouse at 10 mg/kg, po; format: ADME, organism-based; set-up: dose 10 mg/kg, route oral; conditions: in vivo
Mus musculus [27] = assay: Toxicity in high-fat diet fed C57BL/6 mouse assessed as decrease in food intake at 10 mg/kg, po QD relative to control; format: organism-based; set-up: dose 10 mg/kg, route oral; conditions: in vivo
Mus musculus [28] = assay: Antiobesity activity in high-fat diet fed C57BL/6 mouse assessed as decrease in serum free fatty acid level at 10 mg/kg, po QD relative to vehicle-treated control; format: functional; set-up: scale not given: the % may be the effect or the level left
[29] = Terminal half life in ICR mouse at 10 mg/kg, po; format: ADME, organism-based; set-up: dose 10 mg/kg, route oral; conditions: in vivo, read-out: beta t1/2 (converted)
Mus musculus [30] = assay: AUMC in ICR mouse at 1 mg/kg, iv; format: ADME, organism-based; set-up: dose 1 mg/kg, route intravenous; conditions: in vivo
Mus musculus [31] = assay: Antiobesity activity in high-fat diet fed C57BL/6 mouse assessed as decrease in body weight gain at 10 mg/kg, po QD relative to control; format: functional; set-up: scale not given: the % may be the effect or the level left

Ratio EC50 (Homo sapiens): 10000
EC50 [1]: > 10000 nM
EC50 [2]: > 10000 nM
EC50 [3]: 1.2 nM
Structure (SMILES): Cc1cc(SC(Cc2c(F)cccc2Cl)c2sc(-c3ccc(C(F)(F)F)cc3)nc2C)ccc1OCC(=O)O (stereo not given)

bioavailability [4]: 88%
Tmax [5]: 2.75 h
EC50 [6]: 13 nM
CL/F [8]: 0.47 mL/min/kg
AUMC (Mus musculus [11]): 3340 hr.hr.ug/ml
AUC/dose (Mus musculus [12]): 40.6 kg·µg·h/mL/mg
AUC [14]: 357 µg·h/mL
Tmax [15]: 0.33 h
AUC/dose (Mus musculus [16]): 35.7 kg·µg·h/mL/mg
MRT [17]: 5.98 h
Ratio EC50 (Homo sapiens): 10000
AUC [18]: 40.6 µg·h/mL
half-life [19]: 3.69 h
Vd [20]: 0.131 L/kg
MRT [22]: 9.32 h
EC50 [1]: > 10000 nM
Cmax [23]: 37900 ng/mL
clearance [24]: 0.41 mL/min/kg
Cmax [25]: 8980 ng/mL
Vdss (Mus musculus [26]): 0.212 L/kg
EC50 [2]: > 10000 nM
EC50 [3]: 1.6 nM
half-life [29]: 5.27 h
AUMC (Mus musculus [30]): 243 hr.hr.ug/ml
Structure (SMILES): Cc1cc(SC(Cc2ccccc2)c2sc(-c3ccc(C(F)(F)F)cc3)nc2C)ccc1OCC(=O)O (stereo not given)
Activity (Mus musculus [7]): 60%
Activity (Mus musculus [9]): 29%
Activity (Mus musculus [10]): Active
Activity (Mus musculus [13]): Active
Activity (Mus musculus [21]): Active
Activity (Mus musculus [27]): Non-toxic
Activity (Mus musculus [28]): 26%

EC50 [1]: 861 nM
EC50 [2]: > 10000 nM
EC50 [3]: 1.1 nM
Structure (SMILES): Cc1cc(SC(CC2CC2)c2sc(-c3ccc(C(F)(F)F)cc3)nc2C)ccc1OCC(=O)O (stereo not given)

Ratio EC50 (Homo sapiens): 10000
EC50 [1]: > 10000 nM
EC50 [2]: > 10000 nM
EC50 [3]: 2.1 nM
Structure (SMILES): Cc1cc(SC(Cc2c(F)cccc2F)c2sc(-c3ccc(C(F)(F)F)cc3)nc2C)ccc1OCC(=O)O (stereo not given)
Activity (Mus musculus [31]): 35%

EC50 [1]: > 10000 nM
EC50 [2]: > 10000 nM
Structure (SMILES): Cc1cc(SC(Cc2c3ccccc3cc3ccccc23)c2sc(-c3ccc(C(F)(F)F)cc3)nc2C)ccc1OCC(=O)O (stereo not given)

EC50 [6]: 7.9 nM
Structure (SMILES): CCCc1c(OCCCSc2ccc(CC(=O)O)cc2Cl)ccc2c(C(F)(F)F)noc12

EC50 [1]: > 10000 nM
EC50 [2]: > 10000 nM
EC50 [3]: 4.4 nM
Structure (SMILES): Cc1cc(SC(Cc2ccc(-c3ccccc3)cc2)c2sc(-c3ccc(C(F)(F)F)cc3)nc2C)ccc1OCC(=O)O (stereo not given)

EC50 [1]: > 10000 nM
EC50 [2]: > 10000 nM
EC50 [3]: 9.4 nM
Structure (SMILES): Cc1cc(SC(Cc2ccc(C(F)(F)F)cc2)c2sc(-c3ccc(C(F)(F)F)cc3)nc2C)ccc1OCC(=O)O (stereo not given)

Ratio EC50 (Homo sapiens): 10000
EC50 [1]: > 10000 nM
EC50 [2]: > 10000 nM
EC50 [3]: 1.2 nM
Structure (SMILES): Cc1cc(SC(Cc2c(F)cccc2C(F)(F)F)c2sc(-c3ccc(C(F)(F)F)cc3)nc2C)ccc1OCC(=O)O (stereo not given)
Activity (Mus musculus [31]): 24%

Ratio EC50 (Homo sapiens): 10000
EC50 [1]: > 10000 nM
EC50 [2]: > 10000 nM
EC50 [3]: 4.6 nM
Structure (SMILES): Cc1cc(SC(Cc2ccc(F)cc2F)c2sc(-c3ccc(C(F)(F)F)cc3)nc2C)ccc1OCC(=O)O (stereo not given)

EC50 [1]: > 10000 nM
EC50 [2]: > 10000 nM
EC50 [3]: 4.8 nM
Structure (SMILES): COc1ccc(CC(Sc2ccc(OCC(=O)O)c(C)c2)c2sc(-c3ccc(C(F)(F)F)cc3)nc2C)cc1 (stereo not given)

EC50 [1]: > 10000 nM
EC50 [2]: > 10000 nM
EC50 [3]: 2.6 nM
Structure (SMILES): Cc1cc(SC(CCc2ccccc2)c2sc(-c3ccc(C(F)(F)F)cc3)nc2C)ccc1OCC(=O)O (stereo not given)

EC50 [1]: > 10000 nM
EC50 [2]: > 10000 nM
EC50 [3]: 60 nM
Structure (SMILES): Cc1cc(SC(Cc2ccc([N+](=O)[O-])cc2)c2sc(-c3ccc(C(F)(F)F)cc3)nc2C)ccc1OCC(=O)O (stereo not given)
